What all share (assay): Microculture tetrazolium assay
Type in all cases: cell-based

The test system of one experiment is SKVLB. The settings on record: for VLB/OV3: IC50 ratio SKVLB/SKOV3; for IC50: SKVLB.
A further experiment has as its system HT29. The note with it: read-out: IC50.
The subject of another experiment is SKOV3. The settings on record: Homo sapiens, SK-OV-3, SKOV3; read-out: IC50.

The structures appear in SMILES notation. Values joined by “and” are separate entries in the source; they are usually repeats but may differ in a detail not shown here. Equal entries are not always repeated. Structures can show the parent of a compound that is named as a salt. Where two headings read alike, the source gives them in different places.

Regarding `CC(=O)C1Cc2c(O)c3c(c(O)c2C(O[C@H]2C[C@H](N)[C@H](O)[C@H](C)O2)O1)C(=O)c1ccccc1C3=O` (mixture of isomers) [BCH-1130, (1'S,1S,3R) and (1'S,1R,3S)-Methyl-[5,12-dihydroxy-1-(2',3',6'-trideoxy-3'-amino-4'-hydroxy-L-lyxohexopyranose)-6,11-dioxo-3,4,6,11-tetrahydroanthraceno-(2,3-C)pyran-3-yl]ketone hydrochloride], the VLB/OV3 with SKVLB (hydrochloride) was 21.87 and 19.04. The IC50 – broadly, the concentration at which inhibition is half-maximal – in the experiment on SKVLB (hydrochloride, read-out: IC50) worked out at 1.03 µM; in the experiment on SKVLB (read-out: IC50), 0.573 µM; in the experiment with HT29 (HT29, hydrochloride), 0.127 µM; with HT29 (Homo sapiens, HT-29, HT29) it was 0.17 µM.
For `CC(=O)C1Cc2c(O)c3c(c(O)c2C(O[C@H]2C[C@H](N4CCOCC4)[C@H](O)[C@H](C)O2)O1)C(=O)c1ccccc1C3=O` (mixture of isomers) [BCH-1191, (1'S,1R,3S) and (1'S,1S,3R)-Methyl(1-(2',3',6'-trideoxy-3'-morpholino-L-lyxohexopyranose)-6,11-dioxo-5,12-dihydroxy-3,4,6,11-tetrahydroanthraceno[2,3-c]pyran-3-yl)ketone], in the experiment with SKVLB, the VLB/OV3 is recorded as 3.57 and the IC50 was determined as 1.05 µM.
For `C[C@@H]1O[C@@H](O[C@@H]2O[C@@H](C(=O)C(C)(C)C)CC3=C2C(=O)c2cc4ccccc4c(O)c2C3=O)C[C@H](NC(=O)C(F)(F)F)[C@@H]1O` (mixture of isomers) [BCH-2197, (1'S, 1S,3S) and (1'S,1R, 3R)-tert-butyl-(6-hydroxy-1-(2',3',6'-trideoxy-3'-trifluoroacetamido-4-hydroxy-L-lyxohexopyranose)-5,12-dioxo-3,4,5,12-tetrahydroanthraceno-[2,3-c]-pyran-3-yl)-ketone], the IC50 was found to be 2.77 µM with SKOV3; 3.02 µM with SKVLB (read-out: IC50); 0.52 µM in the experiment with HT29 (Homo sapiens, HT-29, HT29). Besides, the VLB/OV3 in the experiment on SKVLB came out at 1.09.
Turning to `C[C@@H]1O[C@@H](O[C@H]2O[C@H](C(=O)C(C)(C)C)CC3=C2C(=O)c2cc4ccccc4c(O)c2C3=O)C[C@H](NC(=O)C(F)(F)F)[C@@H]1O` (mixture of isomers) [BCH-2198, (1'S, 1S,3S) and (1'S,1R, 3R)-tert-butyl-(6-hydroxy-1-(2',3',6'-trideoxy-3'-trifluoroacetamido-4-hydroxy-L-lyxohexopyranose)-5,12-dioxo-3,4,5,12-tetrahydroanthraceno-[2,3-c]-pyran-3-yl)-ketone], the IC50 came out at 4.4 µM in the experiment on SKOV3; 4.15 µM with SKVLB (read-out: IC50); 2.41 µM in the experiment on HT29 (Homo sapiens, HT-29, HT29). Also, the VLB/OV3 with SKVLB was found to be 0.94.
For `CCC1Cc2c(O)c3c(c(O)c2C(C[C@H]2C[C@H](N)[C@H](O)[C@H](C)O2)O1)C(=O)c1ccccc1C3=O` (mixture of isomers) [BCH-2817, (1'S,2'R, 3'S,5'R, 1S,3R) and (1'S,2'R, 3'S,5'R, 1R, 3S)-1-(3-amino-2-hydroxy-1-methyltetrahydropyran-5-yl)methyl-3-ethyl-5,12-dihydroxy-6,11-dioxo-3,4,6,11-tetrahydroanthraceno-[2,3-c]pyran hydrochloride], the IC50 was found to be 1.67 µM in the experiment with SKOV3; 11 µM in the experiment on SKVLB (read-out: IC50); 3.53 µM in the experiment with HT29 (Homo sapiens, HT-29, HT29). Moreover, the VLB/OV3 in the experiment with SKVLB is on record as 6.59.
Consider `CC(=O)[C@H]1CC2=C(C(=O)c3cc4ccccc4c(O)c3C2=O)[C@H](O[C@H]2C[C@H](N)[C@H](O)[C@H](C)O2)O1` [BCH-1127], for which the VLB/OV3 in the experiment with SKVLB is 1.87 and 3.24.
`CC(=O)O[C@@H]1[C@H](C)O[C@@H](O[C@H]2S[C@H](C(C)=O)CC3=C2C(=O)c2cc4ccccc4c(O)c2C3=O)C[C@@H]1OC(C)=O` [BCH-1671]: the VLB/OV3 with SKVLB is 0.82 and 1.00.
Regarding `C=CC[C@H]1Cc2c(O)c3c(c(O)c2[C@H](O[C@H]2C[C@H](N)[C@H](O)[C@H](C)O2)O1)C(=O)c1ccccc1C3=O` [BCH-2106, (1'S,1S,3S)-3-(5,12-dihydroxy-1-(2',3',6'-trideoxy-3'-amino-4'-hydroxy-L-lyxohexopyranose)-6,11-dioxo-3,4,5,12-tetrahydroanthraceno-[2,3-c]pyran-3-yl)propene hydrochloride], the IC50 in the experiment on SKOV3 was determined as 0.148 µM.

Values taken from US5593970A, “Heterocyclic anthracycline analogs” (priority 1994, dated 1997).
